Results from article PMC11101253, “Pharmacokinetic Properties of Baitouweng Decoction in Bama Miniature Pigs: Implications for Clinical Application in Humans” (International Journal of Analytical Chemistry, 2024).

Test: in vivo
Protocol: The LC-MS analysis was conducted using a Waters Acquity UPLC I-Class system (Waters, USA) coupled with a Xevo TQ-XS mass spectrometer equipped with a heated electrospray ionization source. Chromatographic separation was carried out on an Acquity UPLC HSS T3 C18 column (2.1 mm × 50 mm, 1.8 μm) from Waters, USA, with a flow rate of 0.4 mL/min and a column oven temperature of 40°C. The mobile phase consisted of 0.1% aqueous formic acid (A) and acetonitrile (B). The gradient elution program was as follows: 0–2.0 min, 10%–60% B; 2.0–2.2 min, 60%–95% B; 2.2–3.2 min, 95% B; 3.2–3.5 min, 95%–10% B; and 3.5–5.5 min, 10% B. Mass spectrometric detection was conducted using both positive and negative ionization modes. The source parameters used were as follows: a spray voltage of 1.00 KV, capillary temperature set at 500°C, desolvation flow maintained at 1000 L/h, cone gas (nitrogen) flow at 150 L/h, and a cone voltage of 5 V. The collision energy and precursor to production transition m/z for each analyte are found in Table 1. The data acquisition was performed in multiple reaction monitoring (MRM) mode.
Subsequently, a volume of 400 μL of acetonitrile was added to a 100 μL plasma sample. The resulting mixture was subjected to vortexing for 1 minute and centrifuged at a force of 21367 g for 10 minutes at a temperature of 4°C. The resulting supernatant was subjected to evaporation, followed by reconstitution in a volume of 100 μL of 10% acetonitrile. This reconstituted solution was then centrifuged at a force of 21367 g, and subsequently, a volume of 4 μL of the resulting supernatant was used for UPLC-ESI-MS/MS analysis.
The study used six Bama miniature pigs (70 days old, weighing 20 ± 2 kg) obtained from the Experimental Animal Center, Shandong Lvdu Bio-Sciences and Technology Co., Ltd. (Binzhou, China). The pigs were housed under controlled conditions with a temperature of 25 ± 1°C, relative humidity of 65% ± 10%, and a 12/12 h light/dark cycle. The pigs were provided with standard pig feed and water ad libitum, in accordance with the guidelines outlined in the National Institutes of Health Guide for Care and Use of Laboratory Animals. […] Blood samples (0.5 mL each) were collected from the jugular vein of each pig into heparinized tubes at specific time intervals (0.5 h, 1.0 h, 4.0 h, 8.0 h, 12.0 h, 15.0 h, and 24.0 h) following intragastric administration. The blood sample was promptly subjected to centrifugation at a force of 3400 × g for 10 minutes. The resulting supernatant plasma was collected and preserved at a temperature of −80°C until subsequent preparation for LC-MS analysis. The concentration-time data of the analytes were evaluated using either noncompartmental or compartmental methods with the aid of the PKSolver 2.0 software package, and subsequently, pharmacokinetic parameters were computed. The outcomes are presented as the arithmetic mean accompanied by the standard deviation (SD).

[1] = Bama miniature, pig, in vivo, po
[2] = Bama miniature, pig, in vivo, po, C max
[3] = pig plasma, oral BTWD 1.0 mL/kg
[4] = pig plasma, single oral BTWD 1.0 mL/kg, n = 6, mean ± SD
[5] = Bama miniature, pig, plasma, po, 1 mL/kg
[6] = Bama miniature, pig, plasma, po, 1 mL/kg, C max, pig plasma, single oral BTWD 1.0 mL/kg, n = 6, mean ± SD
[7] = Bama miniature, pig, in vivo, po, 1 mL/kg

Structure (SMILES) | AUC(0-inf) [1] | AUC(0-t) [1] | MRT [1] | Tmax [1] | half-life [1] | Cmax [2] | Cmax (in words) (pig plasma, oral BTWD) | concentration-time profile (shape) [3] | CL/F [4] | AUC(0-inf) [5] | AUC(0-t) [5] | MRT [5] | Tmax [5] | half-life [5] | Cmax [6] | also measured
COc1ccc2cc3[n+](cc2c1OC)CCc1cc2c(cc1-3)OCO2 [Berberine, berberine] | 209 ± 13.6 ng·h/mL | 202 ± 12.7 ng·h/mL | 11.07 ± 0.03 h | 12 h | 3.14 ± 0.13 h | 28.4 ± 0.83 ng/mL | low Cmax | biphasic patterns | 14.82 ± 0.93 mL/h |  |  |  |  |  |  | 
COc1cc2c(cc1O)-c1cc3ccc(OC)c(OC)c3c[n+]1CC2 [Columbamine, columbamine] |  |  |  |  |  |  | low Cmax | biphasic patterns | 17.54 ± 0.76 mL/h | 31 ± 1.36 ng·h/mL | 28.4 ± 1.31 ng·h/mL | 12.5 ± 2.8 h | 12 h | 6.74 ± 5.08 h | 3.8 ± 0.08 ng/mL | plasma concentrations (pig plasma, oral BTWD 1.0 mL/kg, upper bound stated in text): below 10.0 ng/mL
c1c2c(cc3c1OCO3)-c1cc3ccc4c(c3c[n+]1CC2)OCO4 [Coptisine chloride, coptisine chloride] | 69.8 ± 1.42 ng·h/mL | 59.88 ± 0.15 ng·h/mL | 14.3 ± 0.31 h | 12 h | 5.7 ± 0.33 h | 5.9 ± 0.15 ng/mL |  |  |  |  |  |  |  |  |  | plasma concentrations [1]: below 10.0 ng/mL; CL/F (pig, in vivo, po): 6.56 ± 0.14 mL/h; Cmax (in words) (pig, in vivo, po): low Cmax; concentration-time profile (shape) (pig, in vivo, po): biphasic patterns
O=c1ccc2cc(O)c(O)cc2o1 [Esculetin, esculetin] |  |  |  |  |  |  |  | biphasic patterns | 0.76 ± 0.02 mL/h | 994 ± 27.8 ng·h/mL | 980 ± 26.4 ng·h/mL | 8.97 ± 0.08 h | 4 h | 2.91 ± 0.08 h | 78.1 ± 1.68 ng/mL | C max [4]: 78.17 ± 1.68 ng/mL
O=c1ccc2cc(O[C@@H]3O[C@H](CO)[C@@H](O)[C@H](O)[C@H]3O)c(O)cc2o1 [Esculin, esculin] |  |  |  |  |  |  |  | biphasic patterns | 3.25 ± 0.43 mL/h |  |  |  |  |  |  | AUC(0-inf) [7]: 876 ± 124 ng·h/mL; AUC(0-t) [7]: 531 ± 52.8 ng·h/mL; Cmax [7]: 66.4 ± 1.91 ng/mL; MRT [7]: 25.1 ± 1.91 h; Tmax [7]: 1 h; half-life [7]: 16.6 ± 1.48 h
